The values that follow come from publication PMC6271975, “Structure-Activity Relationship Study of Sesquiterpene Lactones and Their Semi-Synthetic Amino Derivatives as Potential Antitrypanosomal Products” (Molecules, 2014).

For series [1], the system named is rat skeletal myoblasts (L6-cells). Further details: method as in PMID 22331812, PMID 24080104, PMID 21624443, PMID 22396915. The following applies: cytotoxicity; previously reported compounds included for comparison; cited from earlier work.
In series [2] the test system is T. b. rhodesiense STIB 900 bloodstream forms. Further details: method as in PMID 22331812, PMID 24080104, PMID 21624443, PMID 22396915. The following applies: cited from earlier work; for SI (Selectivity Index): IC50 against L6 cells divided by IC50 against STIB 900 strain, previously reported compounds; for IC50: previously reported compounds included for comparison, compound 9 tested once, read-out: T. brucei STIB 900 IC50.

Series [3] relates to T. b. rhodesiense STIB900. Put plainly: Acute mouse sleeping sickness model (STIB 900). The series is classed as in vivo, NMRI mice. The note with it: for signs of toxicity in mice: acute mouse model; for survival: po, average of all mice, untreated controls euthanized at day 10 post infection. As to the method:
This model mimics the first stage of the human African trypanosomiasis. Adult female NMRI mice were purchased from Janvier (St. Berthevin, France). They weighed between 20 and 25 g at the beginning of the study and were kept under standard conditions at 22 °C and 60%–70% humidity in macrolon type III cages with food pellets and water ad libitum. […] The samples were first dissolved in 100% DMSO, followed by addition of distilled H2O to a final DMSO concentration of 10%. For determination of the in vivo antitrypanosomal activity, mice were infected intraperitoneally with 1 × 10^4 STIB900 bloodstream forms. Experimental groups of four mice were treated orally once a day on four consecutive days from day 3 to day 6 post infection. A control group of four mice was infected, but remained untreated. The determination of the parasitaemia was done on day 7 post infection. […] Five μL of this mixture were transferred to a glass slide and covered with an 18 × 18 mm cover slide. The sample was examined under a light microscope (200-fold magnification) and parasites were counted in 3 of the 16 squares of the grid.

In series [4] the test system is T. b. rhodesiense STIB900. The arrangement: method as in PMID 22331812, PMID 24080104. The following applies: intraperitoneal, 10 mg/kg/b.i.d. for four consecutive days; cited from earlier work.
Series [5] concerns T. b. rhodesiense STIB 900 bloodstream forms. Put plainly: In vitro antitrypanosomal Alamar Blue assay. The series is classed as cell-based, Trypanosoma brucei rhodesiense. On the procedure:
Evaluation of in vitro antiprotozoal activity against T. b. rhodesiense was done using the Alamar Blue assay to determine IC50s as previously described. Serial threefold dilution were prepared in 96-well micro titre plates, and 4000 T. b. rhodesiense STIB 900 bloodstream forms in 50 μL were added to each well except for the negative controls. Melarsoprol (Arsobal®, purity > 95%, Sanofi-Aventis, Meyrin, Switzerland) was used as reference drugs. […] The IC50 values were calculated from the sigmoidal growth inhibition curves using Softmax Pro software (Molecular Devices).

The subject of series [6] is rat skeletal myoblasts (L6-cells). The experiment in a line: cells. The series is classed as cell-based. As to the method: The cytotoxicity assay was performed with rat skeletal myoblasts (L6-cells) seeded in 100 μL RPMI 1640 in 96-well micro titre plates, using the Alamar Blue assay described above. After 24 h the medium was removed and replaced by 100 μL of fresh RPMI 1640 with serial threefold drug dilution. Podophyllotoxin (purity > 95%, Sigma-Aldrich) was used as a reference drug. After 70 h of incubation under a humidified 5% CO2 atmosphere, 10 μL of the Alamar blue marker (see above) was added to all wells. The plates were incubated for an additional 2 h. A Spectramax Gemini XS micro plate fluorescence reader (Molecular Devices) was used to read the plates using an excitation wavelength of 536 nm and an emission wavelength of 588 nm. The IC50s were calculated from the sigmoidal growth inhibition curves using Softmax Pro software (Molecular Devices).

“And” between values parts separate entries of the source, which are not always exact repeats. Equal entries are not always repeated. “Also recorded” adds a separate entry of the source. Structures can show the parent of a compound that is named as a salt. Where two headings read alike, the source gives them in different places.

As for `C=C(CO)C(=O)O[C@H]1CC(=C)[C@@H]2C[C@H](O)C(=C)[C@@H]2[C@H]2OC(=O)C(=C)[C@@H]21` [Compound 1, Cynaropicrin], the IC50 in series [1] was 2.2 ± 0.3 µM. Besides, in series [2], the “SI (Selectivity Index)” value is recorded as 7.8 and the IC50 is 0.3 ± 0.001 µM. Further, the “signs of toxicity in mice” value in series [3] (oral administration) was “euthanized on day 10 post infection due to obvious signs of cytotoxicity”. The “parasitemia on day 7 after infection” value in series [3] (oral, 50 mg/kg body weight/day, four mice) was “reduced parasitemia”. Besides, in series [3] (4 × 50 mg/kg), the “survival” value was found to be 9.5 days. In series [4], the cure of mice result is given as “not able to cure the mice” and the parasitemia result is “parasitemia was decreased over several days”.
As for `C=C1CC(O)C2C(=C)C(=O)OC2C2C(=C)C(O)CC12` (stereo not shown) [Compound 5, Deacylcynaropicrin], the IC50 is 19 µM and 19.2 µM in series [1]; 4.9 ± 0.34 µM in series [2]. Besides, in series [2], the “SI (Selectivity Index)” value is recorded as 3.9. In addition, in series [5] (compared to compound 1), the “fold lower antitrypanosomal activity as compared to 1” value is 16 fold. For the same compound, in series [6] (compared to compound 1), the “fold lower cytotoxicity as compared to 1” value is on record as “nine”.
For the compound `C=C1C(=O)O[C@H]2[C@H]1CC/C(C)=C/CC[C@@]1(C)O[C@@H]21` [Compound 8, parthenolide], the IC50 in series [1] was 5.2 ± 0.9 µM. In series [2], the “SI (Selectivity Index)” value was 6.5 and the IC50 was 0.8 ± 0.5 µM.
Consider `C=C1C(=O)OC2C1CCC(=C)C1CC(OC(C)=O)C(=C)C12` (stereo not shown) [Compound 9, Zaluzanin D], for which, in series [1], the IC50 is 15.6 µM. For the same compound, in series [2], the “SI (Selectivity Index)” value is 1.4 and the IC50 was 10.8 µM.
As for `C=C1C(=O)O[C@@H]2/C=C(\C)CC/C=C(\C)C[C@@H](OC(=O)/C(=C/CO)CO)[C@@H]12` [Compound 13, Eupatoriopicrin], the IC50 in series [1] is 1.6 ± 0.1 µM. Moreover, in series [2], the “SI (Selectivity Index)” value is 1.3 and the IC50 is 1.2 ± 0.2 µM.
Consider `C=C(CO)C(=O)OC1CC(=C)C2CC(O)C(=C)C2C2OC(=O)C(CN(C)C)C12` (stereo not shown) [Compound 19, Cynaropicrin dimethylamine adduct hydrochloride], for which the IC50 came to 0.5 ± 0.003 µM in series [5] (Trypanosoma brucei, 70 h incubation, average of three independent assays, read-out: T. brucei STIB 900 IC50) and 5.2 ± 1.3 µM in series [6] (Rattus norvegicus, L6, cytotoxicity, 70 h incubation, average of three independent assays, read-out: L6 cells IC50). In addition, the “signs of toxicity in mice” value in series [3] (oral administration) is reported as “less signs of toxicity”. In addition, the in vivo efficacy result in series [3] (oral administration, mean survival time versus control) is on record as “no in vivo efficacy; also recorded: did not show any in vivo efficacy”. The “survival” value in series [3] (4 × 25 mg/kg) was 8.5 days; in series [3] (4 × 50 mg/kg), 10 days.
